One test deals with VSMCs. The test can be described thus: Vitamin K2 (MK-7) effect on ATP over time. Format: cell-based. The following applies: 10 μM, indicated time points. The procedure: This study was performed to investigate the effect of vitamin K2 (MK-7) on ATP over time. It is known that all cells, including VSMCs, proliferate. The term cell growth is used in the contexts of biological cell development and cell division (reproduction). When used in the context of cell division, it refers to growth of cell populations, where a cell, known as the “mother cell,” grows and divides to produce two “daughter cells” (M phase). When used in the context of cell development, the term refers to increase in cytoplasmic and organelle volume (G1 phase), as well as increase in genetic material (G2 phase) following the replication during S phase. When a cell is quiescent, this phase is called G0. Cell populations go through a particular type of exponential growth called doubling. Each generation of cells should be twice as numerous as the previous generation. However, the number of generations only gives a maximum figure as not all cells survive in each generation.
To perform this study, first, VSCMs (5000 cells/well) were plated in 96-well plates and left to adhere overnight. […] Next, ATP was measured using mammalian lysis buffer for 5 minutes, after which 50 μL ATP substrate solution was added to the wells and incubated for 10 minutes in a dark environment. Finally, medium was transferred to a white plate to measure luminescence.

In test [1] the test system is Sprague-Dawley rats. As to the kind of experiment: T-TAS thrombus formation in whole blood of treated Sprague-Dawley rats. Particulars: added to dabigatran and to rivaroxaban. Format: in vivo, rat. The procedure: This experiment was conducted in order to evaluate the effects of vitamin K2 (MK-7) on the anticoagulant activity of the new oral anticoagulants (NOAC) rivaroxaban and dabigatran using the T-TAS Total Thrombus-formation Analysis System. The T-TAS Total Thrombus-formation Analysis System is a microchip-based flow chamber system capable of evaluating whole-blood thrombogenicity. It is a useful tool in monitoring the efficacy of anticoagulants on thrombus formation and predicting the risk of bleeding complications. To perform the study, 45 wild-type male Sprague-Dawley and 45 transgenic male Ren-2 rats [TGR(mREN-2)27] at the age of 10-11 weeks at the beginning of the treatment period were purchased from animal facility IKEM-CEM Institute of Clinical and Experimental Medicine (Prague, Czech Republic). All animals in the experiment were housed in individually ventilated cages (2-3 rats per cage) and kept in the animal rooms of JCET at a relative humidity of 55±10%, a temperature of 22±2 ° C., and a light cycle of 7 AM to 7 PM. The rats had free access to food and water. After delivery, animals were randomly divided into 10 experimental groups (5 or 10 rats per group), as indicated below in Table 1. Four days before the start of the treatment, the first part of animals' body weight and food intake was measured in selected representative three cages (rats n=9) to calculate the appropriate amount of tested compounds required for addition to the diet to obtain the dosing indicated in Table 1. It was estimated that food intake was approximately 30 g of chow per rat per day. […] The body mass of the rats was measured at the beginning and at the end of treatment. At the beginning and at the end of treatment, the food intake per day was measured in representative group of animals to monitor the daily dosing of tested compounds (per kg of body mass). The thrombus formation in vitro was measured in whole blood using a microchip-based flow chamber system according to manufacturers' protocol (Total Thrombus-formation Analyser System, T-TAS; Fujimori Kogyo Co., Ltd., Tokyo, Japan). […]

The test system of test [2] is Sprague-Dawley rats. The test can be described thus: Thrombin Time (TT) in treated Sprague-Dawley rats. Format: in vivo, rat. The following applies: added to dabigatran and to rivaroxaban. The procedure:
To perform the study, 45 wild-type male Sprague-Dawley and 45 transgenic male Ren-2 rats [TGR(mREN-2)27] at the age of 10-11 weeks at the beginning of the treatment period were purchased from animal facility IKEM-CEM Institute of Clinical and Experimental Medicine (Prague, Czech Republic). All animals in the experiment were housed in individually ventilated cages (2-3 rats per cage) and kept in the animal rooms of JCET at a relative humidity of 55±10%, a temperature of 22±2 ° C., and a light cycle of 7 AM to 7 PM. The rats had free access to food and water. After delivery, animals were randomly divided into 10 experimental groups (5 or 10 rats per group), as indicated below in Table 1.
Four days before the start of the treatment, the first part of animals' body weight and food intake was measured in selected representative three cages (rats n=9) to calculate the appropriate amount of tested compounds required for addition to the diet to obtain the dosing indicated in Table 1. It was estimated that food intake was approximately 30 g of chow per rat per day. […] The body mass of the rats was measured at the beginning and at the end of treatment.
Prothrombin Time (PT), activated Partial Thromboplastin Time (aPTT), Thrombin Time (TT) and fibrinogen levels (Clauss method) were determined according to the manufacturer's instructions using Coag-Chrom 3003 apparatus (Bio-ksel, Grudziadz, Poland). […]

Molecules are shown by their SMILES.

Results on one compound are retold here after US20220160652A1, “USE OF VITAMIN K IN COMBINATION WITH ANTICOAGULANTS” (KAYDENCE PHARMA AS, priority 2019, published 2022).

With `CC(C)=CCC/C(C)=C/CC/C(C)=C/CC/C(C)=C/CC/C(C)=C/CC/C(C)=C/CC/C(C)=C/CC1=C(C)C(=O)c2ccccc2C1=O` [vitamin K2 (MK-7)], the “ATP production in VSMCs over time” value with VSMCs was “stimulated ATP production in VSMCs”. Besides, in the test on Sprague-Dawley rats [1], the “formation of a clot (AUC) on addition of vitamin K2 (MK-7)” value is “did not prevent the formation of a clot” and the “increase of occlusion Time (OT) on addition of vitamin K2 (MK-7)” value is 5-7%. Besides, in the test with Sprague-Dawley rats [2], the “increase of thrombin time on addition of vitamin K2 (MK-7)” value is given as 5-7%.
